# Results published in ChEMBL document CHEMBL5500348, “Novel 6-alkyl-bridged 4-arylalkylpiperazin-1-yl derivatives of azepino[4,3-b]indol-1(2H)-one as potent BChE-selective inhibitors showing protective effects against neurodegenerative insults” (Eur J Med Chem, 2024).
# The source made the active and inactive calls. No cut-off for these calls is given here.
# Columns and labels:
# [1] = target: Acetylcholinesterase (Electrophorus electricus, UniProt O42275); experiment: Inhibition of electric eel AChE using acetylthiocholine iodide as substrate preincubated for 20 mins followed by substrate addition and measured after 10 mins by DTNB-reagent based Ellman's method
# Sequence of Acetylcholinesterase (O42275 whole entry): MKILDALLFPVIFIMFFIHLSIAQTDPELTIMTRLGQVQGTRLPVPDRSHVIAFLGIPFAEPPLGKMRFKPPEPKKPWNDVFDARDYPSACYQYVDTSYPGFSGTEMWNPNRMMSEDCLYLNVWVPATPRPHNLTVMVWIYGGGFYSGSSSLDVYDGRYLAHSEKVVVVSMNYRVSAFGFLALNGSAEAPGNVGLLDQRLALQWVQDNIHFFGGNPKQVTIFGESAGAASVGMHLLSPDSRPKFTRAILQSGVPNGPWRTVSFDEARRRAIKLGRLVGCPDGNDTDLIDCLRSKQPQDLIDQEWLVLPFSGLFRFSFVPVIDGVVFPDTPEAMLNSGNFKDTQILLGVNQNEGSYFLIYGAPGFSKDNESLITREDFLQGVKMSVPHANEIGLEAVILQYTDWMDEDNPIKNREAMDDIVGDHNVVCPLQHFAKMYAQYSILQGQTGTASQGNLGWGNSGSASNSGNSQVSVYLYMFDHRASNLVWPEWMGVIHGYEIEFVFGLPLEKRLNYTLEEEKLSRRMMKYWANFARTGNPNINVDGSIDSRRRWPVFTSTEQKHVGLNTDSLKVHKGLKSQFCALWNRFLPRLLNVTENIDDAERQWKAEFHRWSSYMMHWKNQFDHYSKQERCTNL
# [2] = target: T1, Cholinesterase (Equus caballus, UniProt P81908); experiment: Inhibition of equine serum BuChE using butyrylthiocholine iodide as substrate preincubated for 20 mins followed by substrate addition and measured after 10 mins by DTNB based Ellman's method
# T1 sequence (P81908 whole entry): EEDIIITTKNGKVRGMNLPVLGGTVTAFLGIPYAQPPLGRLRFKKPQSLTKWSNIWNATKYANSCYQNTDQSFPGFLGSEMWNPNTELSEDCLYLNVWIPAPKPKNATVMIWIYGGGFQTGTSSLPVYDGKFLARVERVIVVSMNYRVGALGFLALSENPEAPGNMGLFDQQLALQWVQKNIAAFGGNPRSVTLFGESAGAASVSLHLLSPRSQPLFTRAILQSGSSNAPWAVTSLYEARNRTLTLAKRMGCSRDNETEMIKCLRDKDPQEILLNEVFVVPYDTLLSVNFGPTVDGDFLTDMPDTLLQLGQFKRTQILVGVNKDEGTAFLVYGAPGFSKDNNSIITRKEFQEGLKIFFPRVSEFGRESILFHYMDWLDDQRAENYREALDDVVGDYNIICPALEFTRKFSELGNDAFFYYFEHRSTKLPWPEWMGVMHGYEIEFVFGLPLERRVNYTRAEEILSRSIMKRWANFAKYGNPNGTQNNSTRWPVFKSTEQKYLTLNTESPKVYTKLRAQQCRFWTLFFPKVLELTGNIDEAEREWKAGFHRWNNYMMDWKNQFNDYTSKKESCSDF
# [3] = target: Amyloid-beta precursor protein (Homo sapiens) (UniProt P05067); experiment: Inhibition of amyloid beta (unknown origin) aggregation at 100 uM relative to control
# Sequence of Amyloid-beta precursor protein (Homo sapiens) (P05067 whole entry): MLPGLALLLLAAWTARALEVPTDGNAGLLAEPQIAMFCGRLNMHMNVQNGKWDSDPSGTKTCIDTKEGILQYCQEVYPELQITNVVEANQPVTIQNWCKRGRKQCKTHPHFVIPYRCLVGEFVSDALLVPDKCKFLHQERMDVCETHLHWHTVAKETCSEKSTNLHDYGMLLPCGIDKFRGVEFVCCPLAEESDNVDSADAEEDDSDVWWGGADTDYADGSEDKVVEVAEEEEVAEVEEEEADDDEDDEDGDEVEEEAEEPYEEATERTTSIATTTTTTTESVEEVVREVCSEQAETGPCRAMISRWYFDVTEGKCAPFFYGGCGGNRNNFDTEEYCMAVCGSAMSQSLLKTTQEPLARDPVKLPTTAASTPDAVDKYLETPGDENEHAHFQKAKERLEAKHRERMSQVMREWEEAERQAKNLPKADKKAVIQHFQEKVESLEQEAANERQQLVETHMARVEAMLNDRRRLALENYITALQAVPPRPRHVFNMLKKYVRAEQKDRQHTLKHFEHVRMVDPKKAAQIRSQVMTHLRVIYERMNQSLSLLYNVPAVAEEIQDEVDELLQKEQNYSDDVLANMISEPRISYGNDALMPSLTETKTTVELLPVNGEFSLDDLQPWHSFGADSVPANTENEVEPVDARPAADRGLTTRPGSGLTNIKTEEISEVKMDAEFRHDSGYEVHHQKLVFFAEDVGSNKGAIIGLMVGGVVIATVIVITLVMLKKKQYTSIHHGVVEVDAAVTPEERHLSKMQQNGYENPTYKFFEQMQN
# [4] = target: Acetylcholinesterase (Homo sapiens) (UniProt P22303); experiment: Inhibition of AChE (unknown origin) at 10 uM relative to control
# Sequence of Acetylcholinesterase (Homo sapiens) (P22303 whole entry): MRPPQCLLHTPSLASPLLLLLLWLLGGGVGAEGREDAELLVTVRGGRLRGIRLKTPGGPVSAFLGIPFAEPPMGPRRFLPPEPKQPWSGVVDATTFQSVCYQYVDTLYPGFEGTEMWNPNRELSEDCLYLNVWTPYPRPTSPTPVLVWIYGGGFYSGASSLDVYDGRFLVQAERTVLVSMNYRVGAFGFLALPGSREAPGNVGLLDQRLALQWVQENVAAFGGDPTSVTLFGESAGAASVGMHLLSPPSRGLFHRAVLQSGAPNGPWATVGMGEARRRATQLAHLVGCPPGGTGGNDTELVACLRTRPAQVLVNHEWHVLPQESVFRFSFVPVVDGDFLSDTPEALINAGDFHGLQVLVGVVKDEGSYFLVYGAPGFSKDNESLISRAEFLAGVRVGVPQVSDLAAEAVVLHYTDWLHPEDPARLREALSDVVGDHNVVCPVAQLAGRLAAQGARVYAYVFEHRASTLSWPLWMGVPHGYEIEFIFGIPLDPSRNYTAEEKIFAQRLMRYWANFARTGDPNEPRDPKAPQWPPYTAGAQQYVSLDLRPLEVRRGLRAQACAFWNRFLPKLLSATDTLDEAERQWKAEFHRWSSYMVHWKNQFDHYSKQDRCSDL
# [5] = target: T2, Cholinesterase (Homo sapiens, UniProt P06276); experiment: Inhibition of BChE (unknown origin) at 10 uM relative to control
# T2 sequence (P06276 whole entry): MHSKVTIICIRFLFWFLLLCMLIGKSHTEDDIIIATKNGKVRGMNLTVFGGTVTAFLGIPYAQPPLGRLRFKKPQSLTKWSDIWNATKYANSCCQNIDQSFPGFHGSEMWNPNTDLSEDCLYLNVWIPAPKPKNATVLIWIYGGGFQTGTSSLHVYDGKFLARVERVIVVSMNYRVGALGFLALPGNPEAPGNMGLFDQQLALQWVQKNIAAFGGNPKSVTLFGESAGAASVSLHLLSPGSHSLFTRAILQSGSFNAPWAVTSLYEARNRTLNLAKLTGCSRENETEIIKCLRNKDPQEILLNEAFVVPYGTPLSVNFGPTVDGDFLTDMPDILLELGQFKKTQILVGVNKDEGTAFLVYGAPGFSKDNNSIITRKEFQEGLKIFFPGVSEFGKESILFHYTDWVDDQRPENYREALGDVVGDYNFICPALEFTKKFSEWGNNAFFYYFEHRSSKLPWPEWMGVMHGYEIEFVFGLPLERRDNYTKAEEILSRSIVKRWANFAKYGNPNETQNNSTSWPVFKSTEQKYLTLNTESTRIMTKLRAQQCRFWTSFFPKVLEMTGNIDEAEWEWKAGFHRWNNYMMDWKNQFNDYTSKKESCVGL
# [6] = target: Acetylcholinesterase (Electrophorus electricus) (UniProt O42275); experiment: Inhibition of electric eel AChE using acetylthiocholine iodide as substrate at 20 uM preincubated for 20 mins followed by substrate addition and measured after 10 mins by DTNB-reagent based Ellman's method relative to control; details: time 30.0 min
# Sequence of Acetylcholinesterase (Electrophorus electricus) (O42275 24-633 limits assumed): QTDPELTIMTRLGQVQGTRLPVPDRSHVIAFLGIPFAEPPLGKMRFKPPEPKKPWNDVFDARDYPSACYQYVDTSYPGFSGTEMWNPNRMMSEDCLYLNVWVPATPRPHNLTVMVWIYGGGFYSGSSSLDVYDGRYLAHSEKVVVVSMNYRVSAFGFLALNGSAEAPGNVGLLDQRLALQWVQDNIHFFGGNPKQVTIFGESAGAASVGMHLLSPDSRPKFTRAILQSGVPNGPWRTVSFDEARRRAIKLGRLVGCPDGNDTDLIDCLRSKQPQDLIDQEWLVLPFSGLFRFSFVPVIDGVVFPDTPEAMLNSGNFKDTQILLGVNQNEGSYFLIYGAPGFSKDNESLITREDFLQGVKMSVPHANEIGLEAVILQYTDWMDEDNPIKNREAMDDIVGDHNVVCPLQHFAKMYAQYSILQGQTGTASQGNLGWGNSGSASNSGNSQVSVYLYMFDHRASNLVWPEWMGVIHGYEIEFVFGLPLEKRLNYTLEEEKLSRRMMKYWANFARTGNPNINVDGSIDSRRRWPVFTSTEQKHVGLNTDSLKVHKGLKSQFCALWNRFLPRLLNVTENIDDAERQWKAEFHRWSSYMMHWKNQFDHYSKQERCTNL
# [7] = target: Amyloid-beta precursor protein (Homo sapiens) (UniProt P05067); experiment: Inhibition of self induced amyloid-beta (1 to 40) (unknown origin) aggregation at 100 uM incubated for 2 hrs by ThT fluorescence based spectrofluorimetric analysis relative to control
# [8] = target: Albumin (Homo sapiens, UniProt P02768); experiment: Binding affinity to human serum albumin assessed as equilibrium dissociation constant by SPR analysis; format: ADME
# Sequence of Albumin (P02768 whole entry): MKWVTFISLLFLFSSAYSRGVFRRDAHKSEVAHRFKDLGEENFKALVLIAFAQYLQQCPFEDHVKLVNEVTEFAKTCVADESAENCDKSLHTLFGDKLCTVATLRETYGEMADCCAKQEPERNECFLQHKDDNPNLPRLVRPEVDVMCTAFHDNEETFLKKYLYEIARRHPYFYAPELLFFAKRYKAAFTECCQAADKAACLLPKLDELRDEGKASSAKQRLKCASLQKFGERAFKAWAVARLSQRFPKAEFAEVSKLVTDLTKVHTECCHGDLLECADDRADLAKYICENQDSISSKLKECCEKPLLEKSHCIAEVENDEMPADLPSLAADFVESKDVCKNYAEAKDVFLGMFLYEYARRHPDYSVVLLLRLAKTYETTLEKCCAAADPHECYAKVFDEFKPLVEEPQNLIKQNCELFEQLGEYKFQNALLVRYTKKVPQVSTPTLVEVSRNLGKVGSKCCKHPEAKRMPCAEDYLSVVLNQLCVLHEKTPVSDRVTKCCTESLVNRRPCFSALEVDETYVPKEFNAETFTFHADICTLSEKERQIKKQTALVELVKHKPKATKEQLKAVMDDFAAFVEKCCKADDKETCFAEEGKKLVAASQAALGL
# [9] = target: T3, serum albumin (Homo sapiens, UniProt P02768); experiment: Binding affinity to human serum albumin assessed as dissociation rate constant (Koff) by SPR analysis; format: ADME; details: read-out: K
# T3 sequence (P02768 whole entry): as above
# [10] = target: T3, serum albumin; experiment: Binding affinity to human serum albumin assessed as residence time by SPR analysis; format: ADME
# [11] = target: T1, Cholinesterase
# Description: Binding affinity to equine BChE in phosphate buffer at pH 8 assessed as equilibrium dissociation constant by SPR analysis
# [12] = target: T2, Cholinesterase; experiment: Inhibition of human BuChE using butyrylthiocholine iodide as substrate preincubated for 20 mins followed by substrate addition and measured after 10 mins by DTNB based Ellman's method
# [13] = target: Acetylcholinesterase (Homo sapiens) (UniProt P22303); experiment: Inhibition of human AChE using acetylthiocholine iodide as substrate at 20 uM preincubated for 20 mins followed by substrate addition and measured after 10 mins by DTNB-reagent based Ellman's method relative to control; details: time 30.0 min
# [14] = system: SH-SY5Y; experiment: Cytoprotective activity against H2O2-induced oxidative stress in human SH-SY5Y cells assessed as increase in cell viability incubated for 24 hrs by MTT assay; format: functional, cell-based
# [15] = Cytotoxicity against human SH-SY5Y cells assessed as reduction in cell viability incubated for 24 hrs by MTT assay; format: toxicity, cell-based
# [16] = system: SH-SY5Y; experiment: Protection against NMDA-induced cytotoxicity in human SH-SY5Y cells assessed as increase in cell viability at 1 uM incubated for 24 hrs by MTT assay; format: functional, cell-based
# [17] = system: SH-SY5Y; experiment: Protection against NMDA-induced cytotoxicity in human SH-SY5Y cells assessed as increase in cell viability at 5 to 20 uM incubated for 24 hrs by MTT assay; format: functional, cell-based; details: dose 5-20 µM
# [18] = system: equine serum BuChE; experiment: Selectivity ratio of IC50 for cytotoxicity against human SH-SY5Y cells to IC50 for inhibition of equine serum BuChE using butyrylthiocholine iodide as substrate; format: toxicity, cell-based; details: probe butyrylthiocholine iodide, read-out: Ratio IC50
# [19] = Antioxidant activity assessed as ROS scavenging activity relative to control; format: functional
# [20] = Aqueous solubility of compound in phosphate buffered solution at pH 7.4 incubated for 1 hr under shaking condition by HPLC analysis; format: physicochemical
# [21] = target: Cholinesterase (Equus caballus) (UniProt P81908); experiment: Mixed-type inhibition of equine serum BChE using varying concentrations of butyrylthiocholine iodide as substrate assessed as change in Km and Vmax at 0.05 to 0.5 uM by Lineweaver-Burk plot analysis; details: dose 0.05-0.5 µM
# Sequence of Cholinesterase (Equus caballus) (P81908 whole entry): as the sequence (P81908 whole entry) above
# [22] = target: T1, Cholinesterase; experiment: Mixed-type inhibition of equine serum BChE using varying concentrations of butyrylthiocholine iodide as substrate assessed as inhibition constant by Lineweaver-Burk plot analysis
# [23] = system: SH-SY5Y; experiment: Cytoprotective activity against H2O2-induced oxidative stress in human SH-SY5Y cells assessed as increase in cell viability at 20 uM incubated for 24 hrs by MTT assay; format: functional, cell-based
# [24] = system: SH-SY5Y; experiment: Cytoprotective activity against H2O2-induced oxidative stress in human SH-SY5Y cells assessed as increase in cell viability at 100 uM incubated for 24 hrs by MTT assay; format: functional, cell-based
# [25] = target: Cholinesterase (Equus caballus) (UniProt P81908); experiment: Inhibition of equine serum BuChE using butyrylthiocholine iodide as substrate at 20 uM preincubated for 20 mins followed by substrate addition and measured after 10 mins by DTNB based Ellman's method relative to control; details: time 30.0 min
smiles,measurement,setting,value
O=C1NCCCc2c1c1ccccc1n2CCCCCCCN1CCN(Cc2ccncc2)CC1,IC50,[1],7.06 µM
same,IC50,[2],1.86 µM
CN1CCN(CCCCCCCn2c3c(c4ccccc42)C(=O)NCCC3)CC1,IC50,[1],15 µM
same,IC50,[2],10 µM
CC(C)NCCCn1c2c(c3ccccc31)C(=O)NCCC2,inhibition,[3],50%
same,inhibition,[4],< 40%
same,inhibition,[5],< 40%
O=C1NCCCc2c1c1ccccc1n2CCCCCN1CCN(c2ccccc2)CC1,IC50,[2],5.52 µM
same,inhibition,[6],31%
O=C1NCCCc2c1c1ccccc1n2CCCCN1CCN(CCc2ccccc2)CC1,IC50,[2],0.528 µM
same,inhibition,[6],36%
same,inhibition,[7],21%
O=C1NCCCc2c1c1ccccc1n2CCCCCN1CCN(c2ccc(F)cc2)CC1,IC50,[2],1.78 µM
same,inhibition,[6],28%
O=C1NCCCc2c1c1ccccc1n2CCCCCCCN1CCN(c2ccccn2)CC1,IC50,[1],9.1 µM
same,IC50,[2],2.1 µM
O=C1NCCCc2c1c1ccccc1n2CCCCCCCN1CCN(c2ccccc2)CC1,IC50,[2],0.765 µM
same,inhibition,[6],17%
same,Kd,[8],1.64 µM
same,koff,[9],0.069 s⁻¹
same,residence time,[10],0.25 min
same,Kd,[11],0.759 µM
O=C1NCCCc2c1c1ccccc1n2CCCCN1CCN(Cc2ccccc2)CC1,IC50,[1],1.48 µM
same,IC50,[2],2.64 µM
O=C1NCCCc2c1c1ccccc1n2CCCCCN1CCN(CCc2ccccc2)CC1,IC50,[2],0.163 µM
same,inhibition,[6],39%
same,IC50,[12],0.19 µM
same,inhibition,[13],20%
same,inhibition,[7],14%
same,EC50,[14],~1.5 µM
same,Activity,[14]; dose 1-20 µM,Dose-Dependent Effect
same,IC50 at 24 h,[15],88 µM
same,Activity,[16],Active
same,Activity,[17],inactive
same,selectivity ratio,[18],500
same,Activity,[19],< 10%
same,Kd,[8],6.7 µM
same,koff,[9],0.092 s⁻¹
same,residence time,[10],0.183 min
same,solubility at 1 h,[20],0.169 mg/mL
same,Kd,[11],0.148 µM
O=C1NCCCc2c1c1ccccc1n2CCCCCN1CCN(Cc2ccncc2)CC1,IC50,[2],1.92 µM
same,inhibition,[6],2%
O=C1NCCCc2c1c1ccccc1n2CCCCCCCN1CCN(CCc2ccccc2)CC1,IC50,[1],5.9 µM
same,IC50,[2],0.065 µM
same,IC50,[12],0.072 µM
same,inhibition,[13],39%
same,inhibition,[21],Active
same,Ki,[22],0.027 µM
same,inhibition,[7],62%
same,IC50 at 24 h,[15],60 µM
same,Activity,[16],Active
same,Activity,[17],inactive
same,selectivity ratio,[18],800
same,Activity,[23],inactive
same,Activity,[19],< 10%
same,Kd,[8],3.53 µM
same,koff,[9],0.151 s⁻¹
same,residence time,[10],0.1 min
same,solubility at 1 h,[20],0.0061 mg/mL
same,Kd,[11],0.062 µM
O=C1NCCCc2c1c1ccccc1n2CCCCCN1CCN(Cc2cccnc2)CC1,IC50,[2],4.92 µM
same,inhibition,[6],37%
O=C1NCCCc2c1c1ccccc1n2CCCCCN1CCN(c2ccccc2F)CC1,IC50,[2],1 µM
same,inhibition,[6],35%
O=C1NCCCc2c1c1ccccc1n2CCN1CCN(Cc2ccccc2)CC1,IC50,[1],6.57 µM
same,IC50,[2],6.59 µM
same,inhibition,[7],13%
O=C1NCCCc2c1c1ccccc1n2CCc1ccccc1,inhibition,[3],< 40%
same,Kd,[8],0.85 µM
same,koff,[9],0.017 s⁻¹
same,residence time,[10],1 min
O=C1NCCCc2c1c1ccccc1n2CCN1CCN(CCc2ccccc2)CC1,IC50,[2],5.79 µM
same,inhibition,[6],8%
same,inhibition,[7],55%
O=C1NCCCc2c1c1ccccc1n2CCCCCCCN1CCN(c2ccc(F)cc2)CC1,IC50,[2],10 µM
same,inhibition,[6],10%
O=C1NCCCc2c1c1ccccc1n2CCCCCCCN1CCN(c2ccccc2F)CC1,IC50,[1],4.94 µM
same,IC50,[2],0.906 µM
O=C1NCCCc2c1c1ccccc1n2CCCCCCCN1CCN(Cc2ccccc2)CC1,IC50,[1],0.402 µM
same,IC50,[2],0.396 µM
O=C1NCCCc2c1c1ccccc1n2CCCCCN1CCN(c2ccccn2)CC1,IC50,[2],0.717 µM
same,inhibition,[6],13%
O=C1NCCCc2c1c1ccccc1n2CCCCCN1CCN(Cc2ccccc2)CC1,IC50,[1],1.83 µM
same,IC50,[2],0.43 µM
same,inhibition,[7],28%
O=C1NCCCc2c1c1ccccc1n2CCCCCCCN1CCN(Cc2cccnc2)CC1,IC50,[2],0.466 µM
same,inhibition,[6],40%
O=c1c(O)c(-c2ccc(O)c(O)c2)oc2cc(O)cc(O)c12,Activity,[24],Active
CN1CCN(CCCCCn2c3c(c4ccccc42)C(=O)NCCC3)CC1,inhibition,[6],20%
same,inhibition,[25],20%
